Ki data for 35 compounds are collected here from patent US20250188030A1, “Biphenyl and Phenylpyridine Compounds” (Pfizer Inc., priority 2023, published 2025).

The target of the first assay is KAT2A (Homo sapiens (Human), UniProt Q92830). As to the kind of experiment: KAT2A acetyltransferase biochemical assay (RapidFire mass spectrometry, AcCoA to CoA). The following applies: KAT2A Ki at 1 μM AcCoA, 5 μM H3 1-21 peptide, 0.5 nM KAT2A, 90-minute reaction.
Chain of KAT2A (Q92830 whole entry): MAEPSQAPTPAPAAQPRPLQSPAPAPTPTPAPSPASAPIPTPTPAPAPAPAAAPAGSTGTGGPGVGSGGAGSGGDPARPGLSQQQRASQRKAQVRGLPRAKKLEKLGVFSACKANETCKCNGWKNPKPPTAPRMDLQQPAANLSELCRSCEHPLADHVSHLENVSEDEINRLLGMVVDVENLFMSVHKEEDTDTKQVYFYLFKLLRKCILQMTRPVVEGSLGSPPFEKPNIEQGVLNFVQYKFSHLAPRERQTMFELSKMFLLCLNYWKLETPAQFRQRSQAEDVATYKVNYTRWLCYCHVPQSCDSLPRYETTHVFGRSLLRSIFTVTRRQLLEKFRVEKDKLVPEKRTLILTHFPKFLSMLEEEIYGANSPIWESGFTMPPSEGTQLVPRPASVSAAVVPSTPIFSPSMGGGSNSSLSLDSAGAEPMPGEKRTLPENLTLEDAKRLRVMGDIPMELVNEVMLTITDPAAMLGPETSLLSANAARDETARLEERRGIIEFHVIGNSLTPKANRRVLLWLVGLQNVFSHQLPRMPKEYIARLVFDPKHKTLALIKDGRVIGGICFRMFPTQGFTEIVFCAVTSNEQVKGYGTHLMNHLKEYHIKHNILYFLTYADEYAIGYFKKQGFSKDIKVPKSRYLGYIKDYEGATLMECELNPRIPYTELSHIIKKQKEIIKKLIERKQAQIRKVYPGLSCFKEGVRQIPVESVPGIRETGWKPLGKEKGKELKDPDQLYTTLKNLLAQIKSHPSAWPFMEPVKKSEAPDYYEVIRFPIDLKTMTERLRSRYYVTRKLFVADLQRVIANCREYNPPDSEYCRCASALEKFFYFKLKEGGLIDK
A word on the Ki: it is a dissociation constant, usually derived from enzyme kinetics or from competition with a known ligand. Take `CC(C)S(=O)(=O)NC(=O)C(C)(C)c1ccc(O[C@@H]2CC[C@@H](NC(=O)[C@@]3(F)CNC4(CCC4)C3)C2)c(-c2cccc(F)c2C2CCC2)c1` (single isomer, unassigned) [Example B3]: affinity was put at a Ki of 236 nM.
Still for that read-out and setting: with `CS(=O)(=O)NC(=O)Cc1ccc(O[C@@H]2CC[C@@H](NC(=O)C3(F)CNC4(CCCC4)C3)C2)c(-c2cccc(F)c2C2CCC2)c1` (single isomer, unassigned) [Example B15] the figure was 660 nM; with `CS(=O)(=O)NC(=O)Cc1ccc(O[C@@H]2CC[C@@H](NC(=O)[C@]3(F)CNC4(CCC4)C3)C2)c(-c2cccc(F)c2C2CCC2)c1` (single isomer, unassigned) [Example C39], 20.4 nM.

The assay is the same for the next values; noted with them: read-out: KAT2A Ki at 1 μM AcCoA, 5 μM H3 1-21 peptide, 0.5 nM KAT2A, 90-minute reaction.
`CC(C)c1ccccc1-c1c(CC(=O)O)cccc1O[C@@H]1CC[C@@H](NC(=O)[C@@H]2CC(C)(C)CN2C)C1` (atropisomer, axis not shown) [Example H5, [(1ψ)-2′-(propan-2-yl)-6-({(1R,3R)-3-[(1,4,4-trimethyl-L-prolyl)amino]cyclopentyl}oxy)[1,1′-biphenyl]-2-yl]acetic acid]: the Ki came to 9040 nM.
Still for that read-out and setting: in the case of `CC1(C)C[C@@H](C(=O)N[C@@H]2CC[C@@H](Oc3cccc(C(=O)O)c3-c3cccc(F)c3C3CCC3)C2)CN1` (atropisomer, axis not shown) [Example H8, (1ψ)-2′-cyclobutyl-6-{[(1R,3R)-3-{[(3ξ)-5,5-dimethylpyrrolidine-3-carbonyl]amino}cyclopentyl]oxy}-3′-fluoro[1,1′-biphenyl]-2-carboxylic acid] it was 348 nM; in that of `CC1(C)C[C@@H](C(=O)N[C@@H]2CC[C@@H](Oc3cccc(C(=O)O)c3-c3cccc(F)c3C3CCC3)C2)CN1` (atropisomer, axis not shown) [Example H10], 26400 nM.
The same measure, in the same setting: with `CC1(C)C[C@H](C(=O)N[C@@H]2CC[C@@H](Oc3cccc(C(=O)O)c3-c3cccc(F)c3C3CCC3)C2)CN1` (atropisomer, axis not shown) [Example H11, (1ψ)-2′-cyclobutyl-6-{[(1R,3R)-3-{[(3ξ)-5,5-dimethylpyrrolidine-3-carbonyl]amino}cyclopentyl]oxy}-3′-fluoro[1,1′-biphenyl]-2-carboxylic acid] the figure was 1100 nM.
Still for that read-out and setting: with `CN1CC(C)(C)C[C@H]1C(=O)N[C@@H]1CC[C@@H](Oc2cccc(C(=O)NS(C)(=O)=O)c2-c2cccc(F)c2C2CCC2)C1` (atropisomer, axis not shown) [Example I2, N-[(1R,3R)-3-({(1ψ)-2′-cyclobutyl-3′-fluoro-6-[(methanesulfonyl)carbamoyl][1,1′-biphenyl]-2-yl}oxy)cyclopentyl]-1,4,4-trimethyl-L-prolinamide] the figure was 1970 nM; with `CN1CC(C)(C)C[C@H]1C(=O)N[C@@H]1CC[C@@H](Oc2cccc(CC(=O)NS(N)(=O)=O)c2-c2ccccc2C2CCC2)C1` (atropisomer, axis not shown) [Example I6, N-[(1R,3R)-3-({(1ψ)-2′-cyclobutyl-6-[2-oxo-2-(sulfamoylamino)ethyl][1,1′-biphenyl]-2-yl}oxy)cyclopentyl]-1,4,4-trimethyl-L-prolinamide], 387 nM.
Consider `CN1CC2(CCCC2)C[C@@H]1C(=O)N[C@@H]1CC[C@@H](Oc2cccc(C(=O)NS(C)(=O)=O)c2-c2cccc(F)c2C2CCC2)C1` (atropisomer, axis not shown) [Example I8, (3ξ)-N-[(1R,3R)-3-({(1ψ)-2′-cyclobutyl-3′-fluoro-6-[(methanesulfonyl)carbamoyl][1,1′-biphenyl]-2-yl}oxy)cyclopentyl]-2-methyl-2-azaspiro[4.4]nonane-3-carboxamide], for which the Ki worked out at 1360 nM.
Still for that read-out and setting: with `CN1CC2(CCCC2)C[C@H]1C(=O)N[C@@H]1CC[C@@H](Oc2cccc(C(=O)NS(C)(=O)=O)c2-c2cccc(F)c2C2CCC2)C1` (atropisomer, axis not shown) [Example I9, (3ξ)-N-[(1R,3R)-3-({(1ψ)-2′-cyclobutyl-3′-fluoro-6-[(methanesulfonyl)carbamoyl][1,1′-biphenyl]-2-yl}oxy)cyclopentyl]-2-methyl-2-azaspiro[4.4]nonane-3-carboxamide] the figure was 411 nM.
Consider `O=C(O)Cc1ccc(O[C@@H]2CC[C@@H](NC(=O)[C@]3(F)CNC4(CCC4)C3)C2)c(-c2cccc(F)c2C2CCC2)c1` (single isomer, unassigned) [Example A8], for which the Ki is greater than 400 nM.
As for `C[C@H](C(=O)O)c1ccc(O[C@@H]2CC[C@@H](NC(=O)[C@@]3(F)CNC4(CCC4)C3)C2)c(-c2cccc(F)c2C2CCC2)c1` (single isomer, unassigned) [Example A17], the Ki was greater than 1000 nM.
Still for that read-out and setting: in the case of `C[C@H](C(=O)O)c1ccc(O[C@@H]2CC[C@@H](NC(=O)[C@@]3(F)CNC4(CCC4)C3)C2)c(-c2cccc(F)c2C2CCC2)c1` (single isomer, unassigned) [Example A18] it was 751 nM; in that of `CC1(C)CNC[C@](F)(C(=O)N[C@@H]2CC[C@@H](Oc3ccc(CC(=O)O)cc3-c3cccc(F)c3C3CCC3)C2)C1` (single isomer, unassigned) [Example A24], 15.4 nM.
On the same count and under the same terms, with `CC(C)(C(=O)NS(=O)(=O)N1CC(F)(F)C1)c1ccc(O[C@@H]2CC[C@@H](NC(=O)[C@]3(F)CNC4(CCC4)C3)C2)c(-c2cccc(F)c2C2CCC2)c1` (single isomer, unassigned) [Example B9] the figure was 209 nM.
The same measure, in the same setting: in the case of `CC(C)(C(=O)NS(=O)(=O)C1CC1)c1ccc(O[C@@H]2CC[C@@H](NC(=O)[C@]3(F)CNC4(CCC4)C3)C2)c(-c2cccc(F)c2C2CCC2)c1` (single isomer, unassigned) [Example B11] it was 517 nM; in that of `CCS(=O)(=O)NC(=O)C(C)(C)c1ccc(O[C@@H]2CC[C@@H](NC(=O)[C@@]3(F)CNC4(CCCC4)C3)C2)c(-c2cccc(F)c2C2CCC2)c1` (single isomer, unassigned) [Example B19], 34.7 nM.
`CCS(=O)(=O)NC(=O)C(C)(C)c1ccc(O[C@@H]2CC[C@@H](NC(=O)[C@@]3(F)CNCC(C)(C)C3)C2)c(-c2cccc(F)c2C2CCC2)c1` (single isomer, unassigned) [Example B21]: the Ki was determined as 81.7 nM.
On to `CC(C)S(=O)(=O)NC(=O)C(C)(C)c1ccc(O[C@@H]2CC[C@@H](NC(=O)[C@@]3(F)CNC4(CCCC4)C3)C2)c(-c2cccc(F)c2C2CCC2)c1` (single isomer, unassigned) [Example B23], for which the Ki is greater than 1000 nM.
In the case of `CC(C)(C(=O)NS(=O)(=O)C1CC1)c1ccc(O[C@@H]2CC[C@@H](NC(=O)[C@@]3(F)CNC4(CCCC4)C3)C2)c(-c2cccc(F)c2C2CCC2)c1` (single isomer, unassigned) [Example B25], the Ki came to 72.8 nM.
On the same count and under the same terms, in the case of `CC1(C)CNC[C@](F)(C(=O)N[C@@H]2CC[C@@H](Oc3ccc(C(C)(C)C(=O)NS(=O)(=O)C4CC4)cc3-c3cccc(F)c3C3CCC3)C2)C1` (single isomer, unassigned) [Example B27] it was 103 nM.
Still for that read-out and setting: with `CC(C)S(=O)(=O)NC(=O)C(C)(C)c1ccc(O[C@@H]2CC[C@@H](NC(=O)[C@@]3(F)CNCC(C)(C)C3)C2)c(-c2cccc(F)c2C2CCC2)c1` (single isomer, unassigned) [Example B29] the figure was 221 nM; with `CC(C)(C(=O)NS(=O)(=O)C1(C)CC1)c1ccc(O[C@@H]2CC[C@@H](NC(=O)[C@@]3(F)CNC4(CCC4)C3)C2)c(-c2cccc(F)c2C2CCC2)c1` (single isomer, unassigned) [Example B33], 27.6 nM.
Still for that read-out and setting: with `CCc1c(F)cccc1-c1cc(C(C)(C)C(=O)NS(C)(=O)=O)ccc1O[C@@H]1CC[C@@H](NC(=O)[C@@]2(F)CNC3(CCCC3)C2)C1` (single isomer, unassigned) [Example C26] the figure was 338 nM; with `CCc1c(F)cccc1-c1cc(C(C)(C)C(=O)NS(=O)(=O)C(C)C)ccc1O[C@@H]1CC[C@@H](NC(=O)[C@@]2(F)CNC3(CCCC3)C2)C1` (single isomer, unassigned) [Example C28], 302 nM.
As for `O=C(Cc1ccc(O[C@@H]2CC[C@@H](NC(=O)[C@@]3(F)CNC4(CCC4)C3)C2)c(-c2cccc(F)c2C2CCC2)c1)NS(=O)(=O)C1CC1` (single isomer, unassigned) [Example C30], the Ki stood at 238 nM.
The same measure, in the same setting: in the case of `CC1(C)CNC[C@](F)(C(=O)N[C@@H]2CC[C@@H](Oc3ccc(C(C)(C)C(=O)NS(=O)(=O)C4(C)CC4)cc3-c3cccc(F)c3C3CCC3)C2)C1` (single isomer, unassigned) [Example C34] it was 321 nM; in that of `CC1(C)CNC[C@](F)(C(=O)N[C@@H]2CC[C@@H](Oc3ccc(C(C)(C)C(=O)NS(C)(=O)=O)cc3-c3cccc(F)c3C3CCC3)C2)C1` (single isomer, unassigned) [Example C36], 118 nM; in that of `CC(C)c1c(F)cccc1-c1cc(C(C)(C)C(=O)NS(=O)(=O)C2(C)CC2)ccc1O[C@@H]1CC[C@@H](NC(=O)[C@@]2(F)CNC3(CCC3)C2)C1` (single isomer, unassigned) [Example C42], greater than 99.9 nM.
Same read-out and setting: in the case of `CC(C)S(=O)(=O)NC(=O)C(C)(C)c1ccc(O[C@@H]2CC[C@@H](NC(=O)[C@]3(F)CNC4(CCC4)C3)C2)c(-c2ccccc2C2CCC2)c1` (single isomer, unassigned) [Example C49] it was greater than 99.9 nM; in that of `CC(C)c1ccccc1-c1cc(CC(=O)NS(=O)(=O)C2(C)CC2)ccc1O[C@@H]1CC[C@@H](NC(=O)[C@@]2(F)CNC3(CCCC3)C2)C1` (single isomer, unassigned) [Example C62], greater than 99.9 nM; in that of `CCS(=O)(=O)NC(=O)Cc1ccc(O[C@@H]2CC[C@@H](NC(=O)[C@@]3(F)CNC4(CCCC4)C3)C2)c(-c2ccccc2C(C)C)c1` (single isomer, unassigned) [Example C64], greater than 99.9 nM.
Still for that read-out and setting: with `CCc1c(F)cccc1-c1cc(CC(=O)NS(=O)(=O)C(C)C)ccc1O[C@@H]1CC[C@@H](NC(=O)[C@@]2(F)CNCC(C)(C)C2)C1` (single isomer, unassigned) [Example C66] the figure was 11.8 nM; with `CC1(S(=O)(=O)NC(=O)Cc2ccc(O[C@@H]3CC[C@@H](NC(=O)[C@@]4(F)CNC5(CCCC5)C4)C3)c(-c3cccc(F)c3C3CCC3)c2)CC1` (single isomer, unassigned) [Example C68], 13.2 nM.
